The melting point is the temperature, or range, at which the solid turns liquid. `C=CCN1CC2OC(c3ccccc3)(C1)c1ccccc12` (configuration not stated) came in with a melting point of 127 to 128 °C. Molecule `OP(O)C(NC(c1ccccc1)c1ccccc1)c1ccc2c(c1)OCO2` (configuration not stated) came in with a melting point of 194 to 195 °C.

`CC(C)c1cn2cccc(CO)c2n1`: the melting point lay in the range of 97 to 99 °C. Next, `O/N=C\c1cccc(Cl)c1`: 64 to 66 °C. Next, `CCc1ccccc1/C(N)=C1\Sc2ccccc2C1=O`: 132 to 133 °C; `O=S(=O)(NCCCCn1ccnc1)c1ccc(Br)cc1`: 158 to 159 °C; `Cc1[nH]c(C=NNC(=O)c2ccc(O)cc2)c(C)c1Br`: 235 °C. As for `CCOC(=O)c1cnc2c(SCc3ccccc3)cccn2c1=O`, the figure is 165 to 167 °C. Turning to `O=CCc1c(O)c(Br)cc(F)c1F`, the melting point was 46.5 to 48 °C. As for `COc1cc(COc2cc3ncnc(Nc4ccc(Cl)cc4F)c3cc2OC)ccn1`, the figure is 202 to 204 °C; as for `CC(=NC(C#N)=C(N)C#N)c1ccc2ccccc2c1`, 188 to 189 °C; as for `COc1cc(CCNC(=O)[C@@H](N)C(C)C)ccc1OCC#Cc1ccc(Cl)cc1`, 115 to 117 °C.

`CC(C)(C)Nc1cc(N2CCNCC2)nc(N2CCCC2)n1` came in with a melting point of 140 to 145 °C. As for `CCN(CC)c1nc(C#N)c(C#N)nc1Cc1ccccc1`, the figure is 73 to 74 °C; as for `NC(=O)c1nnn(Cc2ccccc2Cl)c1N`, 206 to 208 °C.

On to `Cc1noc(NS(=O)(=O)c2ccccc2-c2ccc(-c3ccncn3)cc2)c1C`, for which the melting point lay within 211 to 214 °C.

For the molecule `Cc1ccc(Cl)c(Nc2ccccc2C(=O)N(O)Cc2ccccc2)c1Cl`, the melting point fell in the range of 133 to 135 °C. Next, `CC1(C)OC(=O)c2c(cccc2-c2ccccc2)O1`: 158 to 163 °C. With `CCOCc1nc2c(N)nc3cc(-c4cccc(C(=O)N5CCOCC5)c4)cnc3c2n1CC(C)C`, the melting point lay within 185 to 187 °C. Next, `COC(=O)c1ccc(NC(=O)CBr)cc1`: 144 to 146 °C. As for `CN1c2ccc(F)cc2C(c2ccccc2)=NCC1CCl` (configuration not stated), the figure is 173 to 188 °C; as for `C[C@@H]1N(c2ccc(C#N)c(C(F)(F)F)c2)C(=O)C[C@]1(C)O`, 134 to 137 °C; as for `Cc1nc(N2CCN(C)CC2)nc(N)c1-c1cccc(Br)c1`, 120 to 122 °C.

Regarding `c1ccc(OCCSCc2nnc(-c3ccc(OCCCN4CCSCC4)cc3)o2)cc1`, the melting point is 85 °C.

In turn, `CCOC1(C)Oc2cccc(OC(=O)NC)c2O1` (configuration not stated) gave a melting point of 97 to 98.5 °C. Next, `CC(C)(C)c1ccc(S(=O)(=O)CS(=O)(=O)c2ccc(C(C)(C)C)cc2)cc1`: 150 to 152 °C; `CCC=CCC=CCC=CCCCCCCCC(=O)OCC(COC(=O)CCCCCCCC=CCC=CCC=CCC)OCn1cnc2c(=O)[nH]c(N)nc21` (configuration not stated): 242 to 243 °C.

For the molecule `CC(=O)OC[C@@H](C)[C@H]1CC[C@H]2[C@@H]3C=CC4=CC(=O)C=C[C@]4(C)[C@H]3CC[C@]12C`, the melting point was 90 to 93 °C. Next, `NC(=O)[C@@H]1CCCN1C(=O)/C=C/Sc1ccccc1`: 50 to 54 °C; `CCCCc1oc2ccccc2c1C(=O)c1ccc2c(Br)c(OCC(=O)O)ccc2c1`: 163 to 165 °C; `COc1ccc(C=CC(=O)c2ccc(O)cc2)c(OC)c1`: 165 to 166 °C.

Turning to `Cc1c(-c2cccn2C)c(N2CC[C@H](N(C)C)C2)c2oc(C3CC3)nc2c1C#N`, the melting point fell in the range of 127 to 128 °C.

On to `CCCCN1CCn2c1nc(C(=O)NCc1ccc(F)cc1-n1cnc(C)n1)c(OCc1ccccc1)c2=O`, for which the melting point is 172 to 173 °C.

`COc1ccccc1CN1N=C(c2ccc(OC)c(OC)c2)[C@@H]2CCCC[C@@H]2C1=O` (relative stereo) came in with a melting point of 96 to 99 °C. `Cc1cn(-c2ccc(C(=O)N3Cc4cccn4Cc4ccccc43)cc2)cn1`: the melting point lay within 140 to 145 °C. The molecule `COC(=O)CCNC(=O)c1cc(Cl)c([N+](=O)[O-])cc1[N+](=O)[O-]` gave a melting point of 139 to 141 °C. Next, `N#Cc1c(N2CCNCC2)c2cc(F)ccc2n(Cc2ccc(F)cc2)c1=O`: 240 °C; `CC(C)(c1ccccc1)N1CCC(=O)C(c2ccccc2)C1=O` (configuration not stated): 129 to 132 °C. As for `Cc1ccsc1-c1[nH]nc2c1C(=O)c1c(NC(N)=O)cccc1-2`, the figure is 270 °C. Next, `O=[N+]([O-])c1ccccc1S(=O)(=O)c1ccccc1`: 145 to 146 °C; `COc1ccc2c(cc(C)n2-c2ncnc3cc(Cl)ccc23)c1CC(=O)O`: 110 to 112 °C. `CCCc1nc2c(N)nc3ccccc3c2n1CCCCCS(C)(=O)=O` showed a melting point of 179 to 181 °C.

As to `CC(C)Oc1cccc(C(CC(=O)O)NS(=O)(=O)c2ccc3ccccc3c2)c1` (configuration not stated), the melting point was 126 °C.

Molecule `CC(=O)Nc1nc2c(sc(=O)n2C2OC(COC(C)=O)C(OC(C)=O)C2OC(C)=O)c(=O)[nH]1` (configuration not stated) came in with a melting point of 247 to 248 °C. Turning to `O=C(Nc1cccc2c1C(=O)c1c-2n[nH]c1-c1ccc(C(=O)N2CCCC2)s1)NN1CCOCC1`, the melting point was greater than 300 °C. As for `NC(Cc1cc(O)c2c(c1)C(=O)c1cccc(O)c1C2=O)C(=O)O` (configuration not stated), the figure is 210 to 212 °C; as for `COc1cc(C)cc(OC)c1NC(=O)CC(C)C`, 139 °C.

For the molecule `CCSc1nc(C(C)(C)C)c[nH]1`, the melting point is 116 to 120 °C. Next, `CCCC(=O)Nc1cc(C(F)(F)F)ccc1SCC#N`: 88.5 to 89.5 °C.

The molecule `C=C(c1nc2ccccc2s1)C1CCN(CCc2ccc(OC)cc2)CC1` had a melting point of 84 to 85 °C.

With `CN(Cc1ccc(NC(=O)C2=Cc3cc(-c4cccc(Cl)c4)ccc3S(=O)(=O)CC2)cc1)C1CCOCC1`, the melting point is 221 to 224 °C. For the molecule `CCOC(=O)C1=C(C)NC(C(Nc2ccccc2C(=O)O)SCc2ccccc2)=C(C(=O)OCC)C1c1cccc([N+](=O)[O-])c1` (configuration not stated), the melting point lay in the range of 105 to 107 °C. Next, `CCOc1ccc(CC2NCCc3cc(OC(C)C)c(OC(C)C)cc32)cc1OCC` (configuration not stated): 76 to 80 °C; `FC(F)(F)c1cccc(C(c2ccc3ncccc3c2Cl)n2cncn2)c1` (configuration not stated): 144 °C; `O=C(NCc1cccnc1)c1ccc2n1Cc1ccccc1N(C(=O)c1ccc(-c3ccccc3C=NO)cc1)C2`: 165 to 167 °C. Molecule `CCCCCCCCCCCCOc1cccc2c(OCCCCCCCCCCCC)cccc12` came in with a melting point of 92 to 93 °C. As for `CC(c1ccc2c(c1)[nH]c1ccccc12)n1ccnc1` (configuration not stated), the figure is 157 to 158 °C; as for `Oc1cccc(Sc2ncccc2O)c1`, 147 to 148 °C; as for `COc1ccc2[nH]c(SCc3ncc(C)c(N4CCCCC4)c3Cl)nc2c1`, 154 to 156 °C. As for `CCOC(=O)C(=CNC1CC1)C(=O)c1c(F)c(OC(F)F)c(F)c(F)c1[N+](=O)[O-]`, the figure is 105 to 106 °C; as for `Cc1ccc(/C=C/c2c(C(C)C)nc(C(C)C)c(CO)c2-c2ccc(F)cc2)cc1`, 131 to 133 °C.

As for `O=C(O)c1ccc(OCCCCCCc2cccc(O)c2O)cc1`, the melting point was in the range of 170 to 172 °C.

The record behind these values is a melting point compilation (Tetko et al.; mined from patent text by program, amines drawn as free bases though some values may be those of a salt).
